This note sets out measurements from patent US9365576B2, “Pyrrolopyrrolidinone compounds” (Novartis AG, priority 2012, dated 2016).

pIC50: −log10 of the molar value.

This test deals with human MDM2 protein (amino acids 2-188) (Homo sapiens (Human), UniProt Q00987). Description: TR-FRET assay, p53-MDM2 Assay 2 (modified). It counts as binding. The conditions noted are these: TR-FRET; 0.1 nM MDM2, 0.1 nM Europium labeled streptavidin, Tecan genios Pro reader; read-out: IC50 p53-MDM2 Assay 2. A digest of the protocol: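 Biotinylated human MDM2 (aa 2–188, 1.25 nM) was preincubated 15 min at room temperature with 0.625 nM Eu-streptavidin, then 10 nM Cy5-p53 peptide (aa 18–26) added for 15 min. TR-FRET ratio 665/620 nm (excitation 340 nm) was read; IC50 came from curve fitting.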
Chain of human MDM2 protein (amino acids 2-188) (Q00987 2-188): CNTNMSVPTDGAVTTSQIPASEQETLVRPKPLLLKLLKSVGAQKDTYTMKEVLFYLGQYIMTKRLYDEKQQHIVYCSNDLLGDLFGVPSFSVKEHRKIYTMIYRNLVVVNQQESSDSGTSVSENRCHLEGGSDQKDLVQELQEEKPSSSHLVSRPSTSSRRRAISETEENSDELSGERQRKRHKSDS
For orientation: TR-FRET usually uses a lanthanide donor and a delayed reading to cut background.
What is called pIC50 is the IC50 on a negative log10 scale, so that one unit is a factor of ten. As to `COc1nc(N(C)C)ncc1-c1cc2c(n1C(C)C)C(c1ccc(Cl)cc1)N(C1CN(C)C(=O)N(C)C1)C2=O` (stereo not drawn) [Example 159, 6-(4-Chloro-phenyl)-2-(2-dimethylamino-4-methoxy-pyrimidin-5-yl)-5-(1,3-dimethyl-2-oxo-hexahydro-pyrimidin-5-yl)-1-isopropyl-5,6-dihydro-1H-pyrrolo[3,4-b]pyrrol-4-one], the pIC50 is 9.79.
As for `CNc1ncc(-c2cc3c(n2C(C)C)C(c2ccc(C#N)cc2)N(c2cc(Cl)c(=O)n(C)c2)C3=O)c(OC)n1` (stereo not drawn) [Example 133, 4-[5-(5-Chloro-1-methyl-6-oxo-1,6-dihydro-pyridin-3-yl)-1-isopropyl-2-(4-methoxy-2-methylamino-pyrimidin-5-yl)-4-oxo-1,4,5,6-tetrahydro-pyrrolo[3,4-b]pyrrol-6-yl]-benzonitrile], the pIC50 was 9.49.
In the case of `COc1nc(N)ncc1-c1cc2c(n1C(C)C)[C@@H](c1ccc(C#N)cc1)N(c1ccc(F)c(Cl)c1)C2=O` [Example 172, 4-[(R)-2-(2-Amino-4-methoxy-pyrimidin-5-yl)-5-(3-chloro-4-fluoro-phenyl)-1-isopropyl-4-oxo-1,4,5,6-tetrahydro-pyrrolo[3,4-b]pyrrol-6-yl]-benzonitrile], the pIC50 was 6.94.
To `CNC(=O)c1ccc(OC)c(-c2cc3c(n2C(C)C)C(c2ccc(Cl)cc2)N(C2CCOCC2)C3=O)c1` (stereo not drawn) [Example 75, 3-[6-(4-Chloro-phenyl)-1-isopropyl-4-oxo-5-(tetrahydro-pyran-4-yl)-1,4,5,6-tetrahydro-pyrrolo[3,4-b]pyrrol-2-yl]-4-methoxy-N-methyl-benzamide] belongs 8.96; to `COc1nc(N)ncc1-c1cc2c(n1C(C)C)C(c1ccc(Cl)cc1)N(c1cc(Cl)ccc1C#N)C2=O` (stereo not drawn) [Example 99, 2-[2-(2-Amino-4-methoxy-pyrimidin-5-yl)-6-(4-chloro-phenyl)-1-isopropyl-4-oxo-4,6-dihydro-1H-pyrrolo[3,4-b]pyrrol-5-yl]-4-chloro-benzonitrile], 8.84; to `COc1ncc(-c2cc3c(n2C(C)C)C(c2ccc(Cl)cc2)N(c2cc(Cl)c(=O)n(C)c2F)C3=O)c(OC)n1` (stereo not drawn) [Example 156, 5-(5-Chloro-2-fluoro-1-methyl-6-oxo-1,6-dihydro-pyridin-3-yl)-6-(4-chloro-phenyl)-2-(2,4-dimethoxy-pyrimidin-5-yl)-1-isopropyl-5,6-dihydro-1H-pyrrolo[3,4-b]pyrrol-4-one], 9.91.
On to `COc1ncc(-c2cc3c(n2C(C)C)C(c2ccc(Cl)c(F)c2)N(c2cc(Cl)c(=O)n(C)c2)C3=O)c(OC)n1` (stereo not drawn) [Example 192, 6-(4-Chloro-3-fluoro-phenyl)-5-(5-chloro-1-methyl-6-oxo-1,6-dihydro-pyridin-3-yl)-2-(2,4-dimethoxy-pyrimidin-5-yl)-1-isopropyl-5,6-dihydro-1H-pyrrolo[3,4-b]pyrrol-4-one], for which the pIC50 was 9.89.
The same measure for `COc1nc(N(C)C)ncc1-c1cc2c(n1C(C)C)C(c1ccc(Cl)cc1C)N(c1cc(Cl)c(=O)n(C)c1)C2=O` (stereo not drawn) [Example 147, 5-(5-Chloro-1-methyl-6-oxo-1,6-dihydro-pyridin-3-yl)-6-(4-chloro-2-methyl-phenyl)-2-(2-dimethylamino-4-methoxy-pyrimidin-5-yl)-1-isopropyl-5,6-dihydro-1H-pyrrolo[3,4-b]pyrrol-4-one]: 9.79; for `COc1ccc(CC(=O)O)cc1-c1cc2c(n1C(C)C)[C@H](c1ccc(Cl)cc1)N(c1cc(Cl)ccc1C)C2=O` [Example 91, {3-[(S)-5-(5-Chloro-2-methyl-phenyl)-6-(4-chloro-phenyl)-1-isopropyl-4-oxo-1,4,5,6-tetrahydro-pyrrolo[3,4-b]pyrrol-2-yl]-4-methoxy-phenyl}-acetic acid]: 10.21; for `COc1nc(N)ncc1-c1cc2c(n1C(C)C)[C@@H](c1ccc(C#N)cc1)N(c1cccc(Cl)c1F)C2=O` [Example 155, 4-[(R)-2-(2-Amino-4-methoxy-pyrimidin-5-yl)-5-(3-chloro-2-fluoro-phenyl)-1-isopropyl-4-oxo-1,4,5,6-tetrahydro-pyrrolo[3,4-b]pyrrol-6-yl]-benzonitrile]: 7.37.
In the case of `COc1ccccc1-c1c(F)c2c(n1C(C)C)C(c1ccc(Cl)cc1)N(c1cc(Cl)ccc1C)C2=O` (stereo not drawn) [Example 115, 5-(5-Chloro-2-methyl-phenyl)-6-(4-chloro-phenyl)-3-fluoro-1-isopropyl-2-(2-methoxy-phenyl)-5,6-dihydro-1H-pyrrolo[3,4-b]pyrrol-4-one], the pIC50 was 9.31.
The same measure for `COc1ncc(-c2cc3c(n2C(C)C)C(c2ccc(Cl)cc2)N(C2CCNCC2)C3=O)c(OC)n1` (stereo not drawn) [Example 106, 6-(4-Chloro-phenyl)-2-(2,4-dimethoxy-pyrimidin-5-yl)-1-isopropyl-5-piperidin-4-yl-5,6-dihydro-1H-pyrrolo[3,4-b]pyrrol-4-one]: 6.04; for `COc1ncc(-c2cc3c(n2C(C)C)C(c2ccc(Cl)cc2)N([C@H]2CC[C@H](OC)CC2)C3=O)c(OC)n1` (stereo partly drawn) [Example 143, 6-(4-Chloro-phenyl)-2-(2,4-dimethoxy-pyrimidin-5-yl)-1-isopropyl-5-(trans-4-methoxy-cyclohexyl)-5,6-dihydro-1H-pyrrolo[3,4-b]pyrrol-4-one]: 8.77.
Regarding `COc1ccc(C(=O)N2CCOCC2)cc1-c1cc2c(n1C(C)C)C(c1ccc(Cl)cc1)N(c1cc(Cl)c(=O)n(C)c1)C2=O` (stereo not drawn) [Example 47, 5-(5-Chloro-1-methyl-6-oxo-1,6-dihydro-pyridin-3-yl)-6-(4-chloro-phenyl)-1-isopropyl-2-[2-methoxy-5-(morpholine-4-carbonyl)-phenyl]-5,6-dihydro-1H-pyrrolo[3,4-B]pyrrol-4-one], the pIC50 was 9.82.
`COc1cn(C)c(=O)cc1-c1cc2c(n1C(C)C)C(c1ccc(Cl)cc1)N(c1cc(Cl)c(=O)n(C)c1)C2=O` (stereo not drawn) [Example 150, 5-(5-Chloro-1-methyl-6-oxo-1,6-dihydro-pyridin-3-yl)-6-(4-chloro-phenyl)-1-isopropyl-2-(5-methoxy-1-methyl-2-oxo-1,2-dihydro-pyridin-4-yl)-5,6-dihydro-1H-pyrrolo[3,4-b]pyrrol-4-one]: the pIC50 is 9.60.
`COc1nc(N(C)C)ncc1-c1cc2c(n1C(C)C)C(c1ccc(Cl)cn1)N(c1cccc(Cl)c1F)C2=O` (stereo not drawn) [Example 234, 5-(3-Chloro-2-fluorophenyl)-6-(5-chloropyridin-2-yl)-2-(2-(dimethylamino)-4-methoxypyrimidin-5-yl)-1-isopropyl-5,6-dihydropyrrolo[3,4-b]pyrrol-4(1H)-one]: the pIC50 was 9.18.
Turning to `COc1ncc(-c2c(C(=O)O)c3c(n2C(C)C)C(c2ccc(Cl)cc2)N(c2cc(Cl)c(=O)n(C)c2)C3=O)c(OC)n1` (stereo not drawn) [Example 221, 5-(5-Chloro-1-methyl-6-oxo-1,6-dihydro-pyridin-3-yl)-6-(4-chloro-phenyl)-2-(2,4-dimethoxy-pyrimidin-5-yl)-1-isopropyl-4-oxo-1,4,5,6-tetrahydro-pyrrolo[3,4-b]pyrrole-3-carboxylic acid], the negative-log IC50 (pIC50) was 9.85.
On to `CCOC(=O)Cc1cnc(OC)c(-c2cc3c(n2C(C)C)C(c2ccc(C#N)cc2)N(c2cccc(Cl)c2F)C3=O)c1` (stereo not drawn) [Example 83, {5-[5-(3-Chloro-2-fluoro-phenyl)-6-(4-cyano-phenyl)-1-isopropyl-4-oxo-1,4,5,6-tetrahydro-pyrrolo[3,4-b]pyrrol-2-yl]-6-methoxy-pyridin-3-yl}-acetic acid ethyl ester], for which the pIC50 was 8.38.
To `COc1ncc(-c2cc3c(n2C(C)C)C(c2ccc(Cl)cc2)N(c2cc(Cl)ccc2C)C3=O)c(OC)n1` (stereo not drawn) [Example 14, 5-(5-Chloro-2-methyl-phenyl)-6-(4-chloro-phenyl)-2-(2,4-dimethoxy-pyrimidin-5-yl)-1-isopropyl-5,6-dihydro-1H-pyrrolo[3,4-b]pyrrol-4-one] belongs 10.17; to `COc1ncc(-c2cc3c(n2C(C)C)C(c2ccc(Cl)cc2)N(c2c[nH]c(=O)c(Cl)c2)C3=O)c(OC)n1` (stereo not drawn) [Example 139, 5-(5-Chloro-6-oxo-1,6-dihydro-pyridin-3-yl)-6-(4-chloro-phenyl)-2-(2,4-dimethoxy-pyrimidin-5-yl)-1-isopropyl-5,6-dihydro-1H-pyrrolo[3,4-b]pyrrol-4-one], 9.58; to `COc1cn(C)c(=O)cc1-c1cc2c(n1C(C)C)C(c1ccc(Cl)cc1)N(c1cc(Cl)cnc1OC)C2=O` (stereo not drawn) [Example 205, 5-(5-Chloro-2-methoxy-pyridin-3-yl)-6-(4-chloro-phenyl)-1-isopropyl-2-(5-methoxy-1-methyl-2-oxo-1,2-dihydro-pyridin-4-yl)-5,6-dihydro-1H-pyrrolo[3,4-b]pyrrol-4-one], 9.70.
`COc1ccccc1-c1cc2c(n1C(C)C)C(c1ccc(Cl)cc1)N(c1cc(Cl)c(=O)n(C)c1)C2=O` (stereo not drawn) [Example 46, 5-(5-Chloro-1-methyl-6-oxo-1,6-dihydro-pyridin-3-yl)-6-(4-chloro-phenyl)-1-isopropyl-2-(2-methoxy-phenyl)-5,6-dihydro-1H-pyrrolo[3,4-b]pyrrol-4-one]: the negative logarithm of the IC50 (pIC50) was 9.69.
The same measure for `COc1nc(N(C)C)ncc1-c1cc2c(n1C(C)C)C(c1ccc(C#N)cc1)N([C@H]1CC[C@H](O)CC1)C2=O` (stereo partly drawn) [Example 174, 4-[2-(2-Dimethylamino-4-methoxy-pyrimidin-5-yl)-5-(trans-4-hydroxy-cyclohexyl)-1-isopropyl-4-oxo-1,4,5,6-tetrahydro-pyrrolo[3,4-b]pyrrol-6-yl]-benzonitrile]: 8.78.
As to `COc1nc(N(C)C)ncc1-c1cc2c(n1C(C)C)C(c1ccc(Cl)cc1)N(c1ccc(F)c(Cl)c1)C2=O` (stereo not drawn) [Example 58, 5-(3-Chloro-4-fluoro-phenyl)-6-(4-chloro-phenyl)-2-(2-dimethylamino-4-methoxy-pyrimidin-5-yl)-1-isopropyl-5,6-dihydro-1H-pyrrolo[3,4-b]pyrrol-4-one], the pIC50 was 9.34.
